Test results as given in patent US20250186437A1, “CARBOLINE COMPOUNDS AND USE THEREOF” (PTC Therapeutics, Inc., priority 2021, published 2025).

Test system: MOLM-13 cells
Assay: MOLM-13 Cell Proliferation Assay (indicator of DHODH inhibition)
Format: cell-based
Conditions: Homo sapiens, 72 Hours of culture, CellTiter-Glo, no uridine
Summary of the method: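 Low-passage MOLM-13 cells (10^4/well) in RPMI 1640 + 10% FBS exposed to compound (0.5% DMSO final) for 72 h at 37 °C, 5% CO2. Viability read by CellTiter-Glo luminescence; growth reflects de novo pyrimidine synthesis dependent on DHODH.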

Row | IC50 [nM] | SMILES
1 | 7.6 | FC(F)(F)c1ccnc(N2CCc3c([nH]c4ccc(Cl)cc34)C2c2cnc(N3CC4CC3CO4)nc2)n1 (stereo not shown) [Compound 335, 6-chloro-1-[2-(2-oxa-5-azabicyclo[2.2.1]heptan-5-yl)pyrimidin-5-yl]-2-[4-(trifluoromethyl)pyrimidin-2-yl]-2,3,4,9-tetrahydro-1H-pyrido[3,4-b]indole]
2 | 19.3 | C=Cc1ccc(C2c3[nH]c4ccc(Cl)cc4c3CCN2c2ncc(F)cn2)cc1 (stereo not shown) [Compound 71, 6-chloro-1-(4-ethenylphenyl)-2-(5-fluoropyrimidin-2-yl)-2,3,4,9-tetrahydro-1H-pyrido[3,4-b]indole]
3 | 8.7 | Cc1ccc(C2c3[nH]c4cc(F)c(Cl)cc4c3CCN2c2nccc(C#N)n2)c(F)c1F (stereo not shown) [Compound 141, 2-[6-chloro-1-(2,3-difluoro-4-methylphenyl)-7-fluoro-1,3,4,9-tetrahydro-2H-pyrido[3,4-b]indol-2-yl]pyrimidine-4-carbonitrile]
4 | 2.5 | Cc1ccc(C2c3[nH]c4ccc(Cl)c(F)c4c3CCN2c2nccc(C(F)(F)F)n2)cc1 (stereo not shown) [Compound 76, 6-chloro-5-fluoro-1-(4-methylphenyl)-2-[4-(trifluoromethyl)pyrimidin-2-yl]-2,3,4,9-tetrahydro-1H-pyrido[3,4-b]indole]
5 | 0.2 | Cc1ccc(C2c3[nH]c4ccc(Cl)cc4c3CCN2c2nc(C(F)(F)F)nc(C(F)(F)F)n2)c(F)c1F (stereo not shown) [Compound 497, 2-[4,6-bis(trifluoromethyl)-1,3,5-triazin-2-yl]-6-chloro-1-(2,3-difluoro-4-methylphenyl)-2,3,4,9-tetrahydro-1H-pyrido[3,4-b]indole]
6 | 3.6 | Cc1cc(C)nc(N2CCc3c([nH]c4cc(F)c(Cl)cc34)C2c2ccc(CCCCO)cc2)n1 (stereo not shown) [Compound 245, 4-{4-[6-chloro-2-(4,6-dimethylpyrimidin-2-yl)-7-fluoro-2,3,4,9-tetrahydro-1H-pyrido[3,4-b]indol-1-yl]phenyl}butan-1-ol]
7 | 3.2 | Cc1ccc(C2c3[nH]c4ccc(Cl)cc4c3CCN2c2ncc(F)cn2)c(F)c1F (stereo not shown) [Compound 401, 6-chloro-1-(2,3-difluoro-4-methylphenyl)-2-(5-fluoropyrimidin-2-yl)-2,3,4,9-tetrahydro-1H-pyrido[3,4-b]indole]
8 | 10.6 | N#Cc1ccc(C2c3[nH]c4cc(F)c(Cl)cc4c3CCN2c2nccc(Br)n2)cc1 (stereo not shown) [Compound 69, 4-[2-(4-bromopyrimidin-2-yl)-6-chloro-7-fluoro-2,3,4,9-tetrahydro-1H-pyrido[3,4-b]indol-1-yl]benzonitrile]
9 | 2.2 | Fc1cccc(C2c3[nH]c4ccc(Cl)cc4c3CCN2c2nccc(C(F)(F)F)n2)c1F (stereo not shown) [Compound 119, 6-chloro-1-(2,3-difluorophenyl)-2-[4-(trifluoromethyl)pyrimidin-2-yl]-2,3,4,9-tetrahydro-1H-pyrido[3,4-b]indole]
10 | 3.7 | Cc1cc(C#N)nc(N2CCc3c([nH]c4cc(F)c(Cl)cc34)C2c2cccc(F)c2F)n1 (stereo not shown) [Compound 152, 2-[6-chloro-1-(2,3-difluorophenyl)-7-fluoro-1,3,4,9-tetrahydro-2H-pyrido[3,4-b]indol-2-yl]-6-methylpyrimidine-4-carbonitrile]
11 | 23.3 | Oc1cc(C2c3[nH]c4ccc(Cl)cc4c3CCN2c2ncc(F)cn2)ccc1Cl (stereo not shown) [Compound 219, 2-chloro-5-[6-chloro-2-(5-fluoropyrimidin-2-yl)-2,3,4,9-tetrahydro-1H-pyrido[3,4-b]indol-1-yl]phenol]
12 | 1.9 | Cc1ccc(C2c3[nH]c4cc(F)c(Cl)cc4c3CCN2c2nc(C)cc(C(F)(F)F)n2)cc1 (stereo not shown) [Compound 96, 6-chloro-7-fluoro-1-(4-methylphenyl)-2-[4-methyl-6-(trifluoromethyl)pyrimidin-2-yl]-2,3,4,9-tetrahydro-1H-pyrido[3,4-b]indole]
13 | 11.4 | Fc1cncc(C2c3[nH]c4ccc(Cl)c(F)c4c3CCN2c2nccc(C(F)(F)F)n2)c1 (stereo not shown) [Compound 146, 6-chloro-5-fluoro-1-(5-fluoropyridin-3-yl)-2-[4-(trifluoromethyl)pyrimidin-2-yl]-2,3,4,9-tetrahydro-1H-pyrido[3,4-b]indole]
